In patent US20130150346A1, “Use of FAAH Inhibitors for Treating Parkinson's Disease and Restless Legs Syndrome” (Ironwood Pharmaceutical, Inc., priority 2010, published 2013):

Test: Plasma L-DOPA levels by LC-MS/MS in MPTP-lesioned marmosets
Format: in vivo, common marmosets (Callithrix jacchus)
Settings: URB597 10 mg/kg p.o., 2 h post L-DOPA, 4 h post URB597, p>0.05, paired t-test
Procedure: Six common marmosets (Callithrix jacchus; female; weight, 350-500 g (Harlan, Madison, Wis., USA)) were kept under conditions of controlled temperature (25±2° C.) and a 12-hour light/dark cycle (lights on 6:30 a.m.). Animals were group housed and had access to food, fresh-fruit supplements and water ad libitum and their home cage environment was enriched with primate toys, perches and auditory stimuli. Prior to start of studies, animals were acclimatized to handling, blood collection and administration of treatments (oral syringe feeding and subcutaneous injection) as well as transfer to observation cages for assessment of behavior. A parkinsonian syndrome was induced by once-daily subcutaneous administration of MPTP hydrochloride (Sigma, Canada; 2 mg/kg base concentration in 0.9% saline) for 5 consecutive days. Following this, animals were allowed to recover for 12 weeks to allow parkinsonian symptoms to develop and stabilize. […] Treatment-related complications including dyskinesia and psychosis-like behaviors were evoked by twice-daily treatment with L-DOPA p.o. (as Prolopa®, Roche Canada, Ontario, equivalent to 15 mg/kg L-DOPA and 3.5 mg/kg benserazide) for a minimum of 30 days. […]
The effect of oral treatment with either vehicle or URB597 (10 mg/kg) on plasma levels of L-DOPA was assessed at the beginning of the period of peak L-DOPA effect, i.e., 2 h after L-DOPA administration. […]

In the case of NC(=O)c1cccc(-c2cccc(OC(=O)NC3CCCCC3)c2)c1 [URB597], the “effect of URB597 on plasma L-DOPA levels” value is reported as “did not alter”.
